Laboratory results taken from patent US7439372B2, “Therapeutic compounds” (Allergan, Inc., priority 2006, dated 2008).

Legend:
Type in all cases: cell-based
hEP2/Gqs5 = molecular target: T1, hEP2/Gqs5 (Homo sapiens, UniProt P43116); experiment: FLIPR calcium signal, HEK-293(EBNA) cells expressing hEP2/Gqs5; conditions: value outside parentheses, read-out: Ca2+ Signal-EC50(nM) EP2
T1 construct: expressed in transfected cells; host or cells: HEK-293(EBNA)
Protocol: (§1) HEK-293(EBNA) cells, stably expressing one type or subtype of recombinant human prostaglandin receptors (prostaglandin receptors expressed: hDP/Gqs5; hEP1; hEP2/Gqs5; hEP3A/Gqi5; hEP4/Gqs5; hFP; hIP; hTP), were cultured in 100 mm culture dishes in high-glucose DMEM medium containing 10% fetal bovine serum, 2 mM l-glutamine, 250 µg/ml geneticin (G418) and 200 μg/ml hygromycin B as selection markers, and 100 units/ml penicillin G, 100 µg/ml streptomycin and 0.25 μg/ml amphotericin B.
(§2) Cells were seeded at a density of 5×10^4 cells per well in Biocoat® Poly-D-lysine-coated black-wall, clear-bottom 96-well plates (Becton-Dickinson) and allowed to attach overnight in an incubator at 37° C. Cells were then washed two times with HBSS-HEPES buffer (Hanks Balanced Salt Solution without bicarbonate and phenol red, 20 mM HEPES, pH 7.4) using a Denley Cellwash plate washer (Labsystems). After 45 minutes of dye-loading in the dark, using the calcium-sensitive dye Fluo-4 […] at a final concentration of 2 μM, plates were washed four times with HBSS-HEPES buffer to remove excess dye leaving 100 μl in each well. Plates were re-equilibrated to 37° C. for a few minutes.
(§3) Cells were excited with an Argon laser at 488 nm, and emission was measured through a 510-570 nm bandwidth emission filter (FLIPR™, Molecular Devices, Sunnyvale, Calif.). Drug solution was added in a 50 µl volume to each well to give the desired final concentration. The peak increase in fluorescence intensity was recorded for each well. On each plate, four wells each served as negative (HBSS-HEPES buffer) and positive controls (standard agonists: BW245C (hDP); PGE2 (hEP1; hEP2/Gqs5; hEP3A/Gqi5; hEP4/Gqs5); PGF2α (hFP); carbacyclin (hIP); U-46619 (hTP), depending on receptor). The peak fluorescence change in each drug-containing well was then expressed relative to the controls.
(§4) Compounds were tested in a high-throughput (HTS) or concentration-response (CoRe) format. In the HTS format, forty-four compounds per plate were examined in duplicates at a concentration of 10^−5 M. To generate concentration-response curves, four compounds per plate were tested in duplicates in a concentration range between 10^−5 and 10^−11 M. The duplicate values were averaged. In either, HTS or CoRe format each compound was tested on at least 3 separate plates using cells from different passages to give an n≧3.

hIP = molecular target: T2, hIP (Homo sapiens, UniProt P43119); experiment: FLIPR calcium signal, HEK-293(EBNA) cells expressing hIP
T2 construct: expressed in transfected cells; host or cells: HEK-293(EBNA)
T2 sequence (P43119 whole entry): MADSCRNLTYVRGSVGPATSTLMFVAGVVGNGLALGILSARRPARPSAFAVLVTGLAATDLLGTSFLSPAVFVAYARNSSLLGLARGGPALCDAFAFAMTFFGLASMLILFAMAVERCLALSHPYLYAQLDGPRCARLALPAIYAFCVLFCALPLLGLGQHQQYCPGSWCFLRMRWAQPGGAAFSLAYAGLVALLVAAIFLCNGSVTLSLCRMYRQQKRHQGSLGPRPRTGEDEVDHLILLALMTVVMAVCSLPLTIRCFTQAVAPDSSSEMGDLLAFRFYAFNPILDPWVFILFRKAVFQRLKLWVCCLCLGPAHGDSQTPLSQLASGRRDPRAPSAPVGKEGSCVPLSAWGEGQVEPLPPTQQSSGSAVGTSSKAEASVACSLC
Protocol: as §1, §2, §3, §4

hTP = molecular target: T3, hTP (Homo sapiens, UniProt P21731); experiment: FLIPR calcium signal, HEK-293(EBNA) cells expressing hTP
T3 construct: expressed in transfected cells; host or cells: HEK-293(EBNA)
T3 sequence (P21731 1-343): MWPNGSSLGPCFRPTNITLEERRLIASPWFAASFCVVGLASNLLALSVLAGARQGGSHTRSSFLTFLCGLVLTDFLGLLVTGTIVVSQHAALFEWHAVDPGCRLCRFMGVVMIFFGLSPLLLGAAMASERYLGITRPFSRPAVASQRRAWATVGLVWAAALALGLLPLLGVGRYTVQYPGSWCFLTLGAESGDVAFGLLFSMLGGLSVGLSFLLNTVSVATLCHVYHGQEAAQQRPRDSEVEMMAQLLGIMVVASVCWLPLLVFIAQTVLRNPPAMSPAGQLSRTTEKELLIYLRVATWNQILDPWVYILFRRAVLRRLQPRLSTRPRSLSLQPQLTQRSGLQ
Protocol: as §1, §2, §3, §4

hFP = molecular target: T4, hFP (Homo sapiens, UniProt P43088); experiment: FLIPR calcium signal, HEK-293(EBNA) cells expressing hFP
T4 construct: expressed in transfected cells; host or cells: HEK-293(EBNA)
T4 sequence (P43088 whole entry): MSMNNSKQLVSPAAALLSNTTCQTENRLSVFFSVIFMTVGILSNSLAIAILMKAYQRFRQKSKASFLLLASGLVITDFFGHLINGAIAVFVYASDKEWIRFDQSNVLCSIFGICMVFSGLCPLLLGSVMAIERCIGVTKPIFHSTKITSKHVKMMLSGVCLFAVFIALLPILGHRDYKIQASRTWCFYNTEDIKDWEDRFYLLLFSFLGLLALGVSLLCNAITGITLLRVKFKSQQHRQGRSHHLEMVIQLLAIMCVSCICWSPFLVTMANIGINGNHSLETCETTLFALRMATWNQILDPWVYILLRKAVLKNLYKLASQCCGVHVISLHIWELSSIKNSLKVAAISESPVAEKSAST
Protocol: as §1, §2, §3, §4

hDP/Gqs5 = molecular target: T5, hDP/Gqs5 (Homo sapiens, UniProt Q13258); experiment: FLIPR calcium signal, HEK-293(EBNA) cells expressing hDP/Gqs5
T5 construct: expressed in transfected cells; host or cells: HEK-293(EBNA)
T5 sequence (Q13258 1-359): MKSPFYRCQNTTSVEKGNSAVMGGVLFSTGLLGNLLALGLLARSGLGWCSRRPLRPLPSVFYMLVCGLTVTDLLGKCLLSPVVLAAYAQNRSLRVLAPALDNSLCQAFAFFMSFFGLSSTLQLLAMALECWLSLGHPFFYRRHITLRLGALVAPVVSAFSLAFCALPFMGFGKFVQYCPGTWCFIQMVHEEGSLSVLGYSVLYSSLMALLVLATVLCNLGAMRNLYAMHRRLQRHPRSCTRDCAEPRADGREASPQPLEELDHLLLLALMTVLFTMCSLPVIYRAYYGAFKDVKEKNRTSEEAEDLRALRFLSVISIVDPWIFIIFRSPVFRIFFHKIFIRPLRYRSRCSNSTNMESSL
Protocol: as §1, §2, §3, §4

T1 sequence (P43116 whole entry): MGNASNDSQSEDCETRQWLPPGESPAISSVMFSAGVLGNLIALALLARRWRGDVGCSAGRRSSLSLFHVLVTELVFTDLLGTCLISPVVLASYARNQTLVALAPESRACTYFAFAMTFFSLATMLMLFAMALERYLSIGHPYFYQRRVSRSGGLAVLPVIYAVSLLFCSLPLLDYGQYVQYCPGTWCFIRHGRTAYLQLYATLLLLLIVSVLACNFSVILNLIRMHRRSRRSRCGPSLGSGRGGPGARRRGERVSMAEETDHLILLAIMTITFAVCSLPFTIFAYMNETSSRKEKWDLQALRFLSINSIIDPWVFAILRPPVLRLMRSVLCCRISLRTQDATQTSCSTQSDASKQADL

SMILES | EC50 (hEP2/Gqs5) | Ca2+ Signal-EC50(nM) IP (hIP) | Ca2+ Signal-EC50(nM) TP (hTP) | Ca2+ Signal-EC50(nM) FP (hFP) | Ca2+ Signal-EC50(nM) DP (hDP/Gqs5) | EC50 (hDP/Gqs5; read-out: Ca2+ Signal-EC50(nM) DP)
CCCCCC(O)c1ccc([C@@H]2[C@@H](C/C=C\CCCC(=O)O)CC[C@H]2Cl)cc1 (some centres unmarked) [compound 6] | 731 nM | notactive | notactive | notactive | notactive | 
CCCCCC(O)c1ccc([C@H]2C(=O)CC[C@@H]2CCCc2ccc(C(=O)O)s2)cc1 (some centres unmarked) [compound 2] | 25 nM | notactive | notactive | notactive |  | 9060 nM
CCCCCC(O)c1ccc([C@@H]2[C@@H](CCCc3ccc(C(=O)O)s3)CCC2(Cl)Cl)cc1 (some centres unmarked) [compound 3] | 1620 nM | notactive | notactive | notactive | notactive | 
CCCCCC(O)c1ccc([C@H]2C(=O)CC[C@@H]2CCCc2ccc(C(=O)O)s2)cc1 (some centres unmarked) [compound 1] | 62 nM | notactive | notactive | notactive | notactive | 
CCCCCC(O)c1ccc([C@@H]2[C@@H](C/C=C\CCCC(=O)O)CC[C@H]2O)cc1 (some centres unmarked) [compound 7] | 2510 nM | notactive | notactive | notactive | notactive | 
CCCCCC(O)c1ccc([C@H]2C(=O)C=C[C@@H]2CCCc2ccc(C(=O)O)s2)cc1 (some centres unmarked) [compound 11] | 208 nM | notactive | notactive | notactive | notactive | 
CCCCCC(O)c1ccc([C@H]2C(=O)CC[C@@H]2C/C=C\CCCC(=O)O)cc1 (some centres unmarked) [compound 5] | 381 nM | notactive | notactive | notactive | notactive | 
